According to patent publication US9700047B2, “Macrocyclic picolinamides as fungicides” (Dow AgroSciences LLC, priority 2014, dated 2017):
Like-named read-outs stand apart in the source and are kept apart here.

Tested on: Puccinia triticina; Synonym: Puccinia recondita f sp. tritici
Assay: Wheat brown rust (PUCCRT) disease control on wheat seedlings
Type: in vivo
Conditions: for pest or weed control at 121.5 g/ha: Low Volume activity at 121.5 g/H; for pest or weed control at 100 ppm: High Volume activity at 100 ppm
Description: All fungicides were evaluated using the aforementioned method for their activity vs. all target diseases, unless stated otherwise. Wheat leaf blotch and brown rust activity were also evaluated using track spray applications, in which case the fungicides were formulated as EC formulations, containing 0.1% Trycol 5941 in the spray solutions. Wheat plants (variety Yuma) were grown from seed in a greenhouse in 50% mineral soil/50% soil-less Metro mix until the first leaf was fully emerged, with 7-10 seedlings per pot. These plants were inoculated with an aqueous spore suspension of Puccinia triticina either prior to or after fungicide treatments. […] The plants were then transferred to a greenhouse set at 24° C. for disease to develop. Fungicide formulation, application and disease assessment followed the procedures as described in the Example A.

[1] = 24 h, 1 Day Protectant, read-out: PUCCRT 1DP % Control rating
[2] = 72 h, 3 Day Curative, read-out: PUCCRT 3DC % Control rating

SMILES	pest or weed control at 121.5 g/ha [1] [%]	pest or weed control at 121.5 g/ha [2] [%]	pest or weed control at 100 ppm [1] [%]	pest or weed control at 100 ppm [2] [%]
COc1ccnc(C(=O)N[C@H]2CCC[C@H](Cc3ccc(Cl)cc3)[C@@H](CC(C)C)[C@H](C)OC2=O)c1OC(C)=O [Compound 13]	> 70	< 70		
COc1ccnc(C(=O)N[C@H]2CCC[C@H](Cc3ccccc3)[C@@H](c3ccccc3)[C@H](C)OC2=O)c1OCOC(C)=O [Compound 52]	> 70	< 70		
COc1ccnc(C(=O)N[C@H]2CCC[C@H](CCCc3ccccc3)[C@@H](CCc3ccccc3)[C@H](C)OC2=O)c1O [Compound 85]			> 70	< 70
CCCC[C@@H]1[C@@H](Cc2ccccc2)CCC[C@H](NC(=O)c2nccc(OC)c2O)C(=O)O[C@H]1C [Compound 71, N-((3S,7R,8R,9S)-7-benzyl-8-butyl-9-methyl-2-oxooxonan-3-yl)-3-hydroxy-4-methoxypicolinamide]			> 70	> 70
COc1ccnc(C(=O)N[C@H]2CCC[C@H](Cc3ccc(Cl)cc3)[C@@H](Cc3ccccc3)[C@H](C)OC2=O)c1OC(C)=O [Compound 21]	> 70	< 70		
CCOCC(=O)OCOc1c(OC)ccnc1C(=O)N[C@H]1CCC[C@H](Cc2ccc(C(F)(F)F)cc2)[C@@H](Cc2ccc(OC(F)(F)F)cc2)[C@H](C)OC1=O [Compound 66]	< 70	< 70		
COc1ccnc(C(=O)N[C@H]2CCC[C@H](Cc3ccc(C(F)(F)F)cc3)[C@@H](Cc3ccccc3)[C@H](C)OC2=O)c1OCOC(=O)C(C)C [Compound 27]	> 70	< 70		
COc1ccnc(C(=O)N[C@H]2CCC[C@H](Cc3ccccc3)[C@@H](Cc3ccc(F)cc3)[C@H](C)OC2=O)c1OCOC(C)=O [Compound 63]	> 70	< 70		
COc1ccnc(C(=O)N[C@H]2CCC[C@H](Cc3ccc(Cl)cc3)[C@@H](Cc3ccccc3)[C@H](C)OC2=O)c1O [Compound 79]			> 70	< 70
COc1ccnc(C(=O)N[C@H]2CCC[C@H](Cc3ccccc3)[C@@H](Cc3ccccc3)[C@H](C)OC2=O)c1O [Compound 74]			> 70	> 70
COc1ccnc(C(=O)N[C@H]2CCC[C@H](CCCc3ccccc3)[C@@H](CCc3ccccc3)[C@H](C)OC2=O)c1OCOC(C)=O [Compound 32]	> 70	< 70		
CCCC[C@@H]1[C@@H](Cc2ccccc2)CCC[C@H](NC(=O)c2nccc(OC)c2OC(C)=O)C(=O)O[C@H]1C [Compound 1, 2-(((3S,7R,8R,9S)-7-benzyl-8-butyl-9-methyl-2-oxooxonan-3-yl)carbamoyl)-4-methoxypyridin-3-yl acetate]	> 70	< 70	> 70	> 70
COc1ccnc(C(=O)N[C@H]2CCC[C@H](Cc3ccc(C(F)(F)F)cc3)[C@@H](Cc3ccc(OC(F)(F)F)cc3)[C@H](C)OC2=O)c1OCOC(C)=O [Compound 65]	< 70	< 70		
COc1ccnc(C(=O)N[C@H]2CCC[C@H](Cc3ccc(Cl)cc3)[C@@H](C3CCCC3)[C@H](C)OC2=O)c1O [Compound 84]			> 70	< 70
COc1ccnc(C(=O)N[C@H]2CCC[C@H](Cc3ccc(Cl)cc3)[C@@H](Cc3ccccc3)[C@H](C)OC2=O)c1OCOC(C)=O [Compound 19]	> 70	< 70		
COc1ccnc(C(=O)N[C@H]2CCC[C@H](CCCc3ccccc3)[C@@H](Cc3ccccc3)[C@H](C)OC2=O)c1OCOC(C)=O [Compound 70]	> 70	< 70		
COc1ccnc(C(=O)N[C@H]2CCC[C@H](CCC(C)C)[C@@H](CCc3ccccc3)[C@H](C)OC2=O)c1OCOC(C)=O [Compound 34]	> 70	< 70		
COc1ccnc(C(=O)N[C@H]2CCC[C@H](CCCc3ccccc3)[C@@H](Cc3ccc(OC(F)(F)F)cc3)[C@H](C)OC2=O)c1OCOC(C)=O [Compound 59]	> 70	< 70		
COc1ccnc(C(=O)N[C@H]2CCC[C@H](Cc3ccc(Cl)cc3)[C@@H](C3CCCC3)[C@H](C)OC2=O)c1OC(C)=O [Compound 28]	> 70	< 70		
CCC[C@H]1CCC[C@H](NC(=O)c2nccc(OC)c2OC(C)=O)C(=O)O[C@@H](C)[C@@H]1Cc1ccc(F)cc1 [Compound 46]	> 70	> 70		

SMILES	pest or weed control at 121.5 g/ha [1] [%]	pest or weed control at 121.5 g/ha [2] [%]	pest or weed control at 100 ppm [1] [%]	pest or weed control at 100 ppm [2] [%]
COc1ccnc(C(=O)N[C@H]2CCC[C@H](Cc3ccc(C(F)(F)F)cc3)[C@@H](Cc3ccccc3)[C@H](C)OC2=O)c1OCOC(C)=O [Compound 26]	> 70	< 70		
CCOCC(=O)OCOc1c(OC)ccnc1C(=O)N[C@H]1CCC[C@H](Cc2ccc(Cl)cc2)[C@@H](C2CCCC2)[C@H](C)OC1=O [Compound 31]	> 70	< 70		
COc1ccnc(C(=O)N[C@H]2CCC[C@H](Cc3ccc(C(F)(F)F)cc3)[C@@H](Cc3ccccc3)[C@H](C)OC2=O)c1OC(C)=O [Compound 25]	< 70	< 70		
CCOCC(=O)OCOc1c(OC)ccnc1C(=O)N[C@H]1CCC[C@H](Cc2ccccc2)[C@@H](Cc2ccccc2)[C@H](C)OC1=O [Compound 8, ((2-(((3S,7R,8R,9S)-7,8-dibenzyl-9-methyl-2-oxooxonan-3-yl)carbamoyl)-4-methoxypyridin-3-yl)oxy)methyl 2-ethoxyacetate]	> 70	< 70		
COc1ccnc(C(=O)N[C@H]2CCC[C@H](CCC(C)C)[C@@H](C3CCCC3)[C@H](C)OC2=O)c1OC(C)=O [Compound 43]	> 70	< 70		
COc1ccnc(C(=O)N[C@H]2CCC[C@H](CC3CC3)[C@@H](Cc3ccccc3)[C@H](C)OC2=O)c1O [Compound 94]	> 70	< 70		
COc1ccnc(C(=O)N[C@H]2CCC[C@H](Cc3ccc(Cl)cc3)[C@@H](C3CCCC3)[C@H](C)OC2=O)c1OCOC(=O)C(C)C [Compound 30]	< 70	< 70		
COc1ccnc(C(=O)N[C@H]2CCC[C@H](Cc3ccccc3)[C@@H](Cc3ccc(F)cc3)[C@H](C)OC2=O)c1OC(C)=O [Compound 62]	> 70	< 70		
CCC[C@H]1CCC[C@H](NC(=O)c2nccc(OC)c2OCOC(C)=O)C(=O)O[C@@H](C)[C@@H]1c1ccccc1 [Compound 54]	> 70	> 70		
COc1ccnc(C(=O)N[C@H]2CCC[C@H](CCC(C)C)[C@@H](CCc3ccccc3)[C@H](C)OC2=O)c1OC(C)=O [Compound 36]	> 70	< 70		
CCCC[C@@H]1[C@@H](Cc2ccc(C(F)(F)F)cc2)CCC[C@H](NC(=O)c2nccc(OC)c2O)C(=O)O[C@H]1C [Compound 72]			> 70	< 70
COc1ccnc(C(=O)N[C@H]2CCC[C@H](Cc3ccc(C(F)(F)F)cc3)[C@@H](CC(C)C)[C@H](C)OC2=O)c1OCOC(=O)C(C)C [Compound 24]	< 70	< 70		
COc1ccnc(C(=O)N[C@H]2CCC[C@H](CCC(C)C)[C@@H](C3CCCC3)[C@H](C)OC2=O)c1OCOC(=O)C(C)C [Compound 44]	> 70	< 70		
COc1ccnc(C(=O)N[C@H]2CCC[C@H](Cc3ccccc3)[C@@H](CCc3ccccc3)[C@H](C)OC2=O)c1OCOC(C)=O [Compound 15]	> 70	< 70		
COc1ccnc(C(=O)N[C@H]2CCC[C@H](Cc3ccccc3)[C@@H](C3CCCC3)[C@H](C)OC2=O)c1OCOC(C)=O [Compound 10]	> 70	> 70		
CCC[C@H]1CCC[C@H](NC(=O)c2nccc(OC)c2OCOC(C)=O)C(=O)O[C@@H](C)[C@@H]1Cc1ccccc1 [Compound 37]	> 70	> 70		
COc1ccnc(C(=O)N[C@H]2CCC[C@H](Cc3ccc(C(F)(F)F)cc3)[C@@H](CC(C)C)[C@H](C)OC2=O)c1O [Compound 80]			> 70	< 70
COc1ccnc(C(=O)N[C@H]2CCC[C@H](Cc3ccccc3)[C@@H](Cc3ccc(F)cc3)[C@H](C)OC2=O)c1O [Compound 95]	> 70	< 70		
CCOCC(=O)OCOc1c(OC)ccnc1C(=O)N[C@H]1CCC[C@H](Cc2ccccc2)[C@@H](Cc2ccc(OC(F)(F)F)cc2)[C@H](C)OC1=O [Compound 69]	< 70	< 70		
COc1ccnc(C(=O)N[C@H]2CCC[C@H](Cc3ccc(C(F)(F)F)cc3)[C@@H](Cc3ccc(F)cc3)[C@H](C)OC2=O)c1OC(C)=O [Compound 40]	< 70	< 70		
